Measured values: the supplement of paper PMC4862054

Experiments:
Experiment in all cases: normalised viability (% of control), CellTiter-Blue; higher = more viable cells (about 100 = DMSO control)
Settings in all cases: incubation time: 72 h
CAL-148 [1] = system: CAL-148
Procedure: (§1)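 DSRT, CellTiter-Blue viability, 72 h incubation. Signal is normalised to DMSO and benzethonium chloride controls. Value is the normalised response at dose 8.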

DU-4475 [2] = system: DU-4475
Procedure: as §1

CAL-85-1 [3] = system: CAL-85-1
Procedure: as §1

CAL-51 [4] = system: CAL-51
Procedure: as §1

HDQ-P1 [5] = system: HDQ-P1
Procedure: as §1

MDA-MB-453 [6] = system: MDA-MB-453
Procedure: as §1

CAL-148 [7] = system: CAL-148; remark: listed apart in the source
Procedure: (§2)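 DSRT, CellTiter-Blue viability, 72 h incubation. Signal is normalised to DMSO and benzethonium chloride controls. Value is the normalised response at dose 7.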

DU-4475 [8] = system: DU-4475; remark: listed apart in the source
Procedure: as §2

CAL-85-1 [9] = system: CAL-85-1; remark: listed apart in the source
Procedure: as §2

CAL-51 [10] = system: CAL-51; remark: listed apart in the source
Procedure: as §2

HDQ-P1 [11] = system: HDQ-P1; remark: listed apart in the source
Procedure: as §2

MDA-MB-453 [12] = system: MDA-MB-453; remark: listed apart in the source
Procedure: as §2

CAL-148 [13] = system: CAL-148; remark: listed apart in the source
Procedure: (§3)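 DSRT, CellTiter-Blue viability, 72 h incubation. Signal is normalised to DMSO and benzethonium chloride controls. Value is the normalised response at dose 6.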

DU-4475 [14] = system: DU-4475; remark: listed apart in the source
Procedure: as §3

CAL-85-1 [15] = system: CAL-85-1; remark: listed apart in the source
Procedure: as §3

CAL-51 [16] = system: CAL-51; remark: listed apart in the source
Procedure: as §3

HDQ-P1 [17] = system: HDQ-P1; remark: listed apart in the source
Procedure: as §3

MDA-MB-453 [18] = system: MDA-MB-453; remark: listed apart in the source
Procedure: as §3

C[C@]12CC[C@@H]3c4ccc(O)cc4C[C@@H](CCCCCCCCC[S+]([O-])CCCC(F)(F)C(F)(F)F)[C@H]3[C@@H]1CC[C@@H]2O (stereo partly specified) [Fulvestrant] (3000 nM)
normalised viability (CAL-148 [1]): 104% | normalised viability (DU-4475 [2]): 107% | normalised viability (CAL-85-1 [3]): 94.6% | normalised viability (CAL-51 [4]): 99.7% | normalised viability (HDQ-P1 [5]): 90.4% | normalised viability (MDA-MB-453 [6]): 92.8%

O=P1(NCCCl)OCCCN1CCCl (stereo unspecified) [Ifosfamide] (3000 nM)
normalised viability (CAL-148 [1]): 106% | normalised viability (DU-4475 [2]): 87.2% | normalised viability (CAL-85-1 [3]): 92.9% | normalised viability (CAL-51 [4]): 97.4% | normalised viability (HDQ-P1 [5]): 107% | normalised viability (MDA-MB-453 [6]): 112%

CC(C)Cn1cnc2c(N)nc3ccccc3c21 [Imiquimod] (1000 nM)
normalised viability (CAL-148 [7]): 106% | normalised viability (DU-4475 [8]): 93.3% | normalised viability (CAL-85-1 [9]): 92.8% | normalised viability (CAL-51 [10]): 99.8% | normalised viability (HDQ-P1 [11]): 86.1% | normalised viability (MDA-MB-453 [12]): 104%

CC(C)Cn1cnc2c(N)nc3ccccc3c21 [Imiquimod] (3000 nM)
normalised viability (CAL-148 [1]): 95.5% | normalised viability (DU-4475 [2]): 107% | normalised viability (CAL-85-1 [3]): 107% | normalised viability (CAL-51 [4]): 107% | normalised viability (HDQ-P1 [5]): 89.1% | normalised viability (MDA-MB-453 [6]): 95.7%

CC1(C)NC(=O)N(c2ccc([N+](=O)[O-])c(C(F)(F)F)c2)C1=O [Nilutamide] (3000 nM)
normalised viability (CAL-148 [1]): 99.1% | normalised viability (DU-4475 [2]): 106% | normalised viability (CAL-85-1 [3]): 96.8% | normalised viability (CAL-51 [4]): 96.9% | normalised viability (HDQ-P1 [5]): 127% | normalised viability (MDA-MB-453 [6]): 99%

Cc1ccc(C(=O)Nc2ccc(CN3CCN(C)CC3)c(C(F)(F)F)c2)cc1C#Cc1cnc2cccnn12 [Ponatinib] (30 nM)
normalised viability (CAL-148 [13]): 106% | normalised viability (DU-4475 [14]): 81.4% | normalised viability (CAL-85-1 [15]): 90% | normalised viability (CAL-51 [16]): 86.3% | normalised viability (HDQ-P1 [17]): 97% | normalised viability (MDA-MB-453 [18]): 85.3%

Cc1ccc(C(=O)Nc2ccc(CN3CCN(C)CC3)c(C(F)(F)F)c2)cc1C#Cc1cnc2cccnn12 [Ponatinib] (300 nM)
normalised viability (CAL-148 [1]): 87.7% | normalised viability (DU-4475 [2]): 73.8% | normalised viability (CAL-85-1 [3]): 80.5% | normalised viability (CAL-51 [4]): 73.9% | normalised viability (HDQ-P1 [5]): 58.9% | normalised viability (MDA-MB-453 [6]): 54.3%

Cn1c(Nc2ccc(C(F)(F)F)cc2)nc2cc(Oc3ccnc(-c4ncc(C(F)(F)F)[nH]4)c3)ccc21 [RAF265] (30 nM)
normalised viability (CAL-148 [13]): 86.2% | normalised viability (DU-4475 [14]): 111% | normalised viability (CAL-85-1 [15]): 88.9% | normalised viability (CAL-51 [16]): 89.8% | normalised viability (HDQ-P1 [17]): 51.7% | normalised viability (MDA-MB-453 [18]): 88.3%

Cn1c(Nc2ccc(C(F)(F)F)cc2)nc2cc(Oc3ccnc(-c4ncc(C(F)(F)F)[nH]4)c3)ccc21 [RAF265] (300 nM)
normalised viability (CAL-148 [1]): 85.5% | normalised viability (DU-4475 [2]): 71.3% | normalised viability (CAL-85-1 [3]): 71.5% | normalised viability (CAL-51 [4]): 66.9% | normalised viability (HDQ-P1 [5]): 39.4% | normalised viability (MDA-MB-453 [6]): 92.5%

CNCc1ccc(-c2[nH]c3cc(F)cc4c3c2CCNC4=O)cc1 [Rucaparib] (300 nM)
normalised viability (CAL-148 [13]): 91.7% | normalised viability (DU-4475 [14]): 77.4% | normalised viability (CAL-85-1 [15]): 92.6% | normalised viability (CAL-51 [16]): 110% | normalised viability (HDQ-P1 [17]): 43.2% | normalised viability (MDA-MB-453 [18]): 108%

CNCc1ccc(-c2[nH]c3cc(F)cc4c3c2CCNC4=O)cc1 [Rucaparib] (3000 nM)
normalised viability (CAL-148 [1]): 87% | normalised viability (DU-4475 [2]): 87.3% | normalised viability (CAL-85-1 [3]): 79.3% | normalised viability (CAL-51 [4]): 102% | normalised viability (HDQ-P1 [5]): 82.9% | normalised viability (MDA-MB-453 [6]): 87.5%

N[C@@H](CSC(c1ccccc1)(c1ccccc1)c1ccccc1)C(=O)O [S-trityl-L-cysteine] (1200 nM)
normalised viability (CAL-148 [13]): 114% | normalised viability (DU-4475 [14]): 97.8% | normalised viability (CAL-85-1 [15]): 95.1% | normalised viability (CAL-51 [16]): 78.5% | normalised viability (HDQ-P1 [17]): 68.4% | normalised viability (MDA-MB-453 [18]): 90.5%

N[C@@H](CSC(c1ccccc1)(c1ccccc1)c1ccccc1)C(=O)O [S-trityl-L-cysteine] (12000 nM)
normalised viability (CAL-148 [1]): 106% | normalised viability (DU-4475 [2]): 114% | normalised viability (CAL-85-1 [3]): 36.7% | normalised viability (CAL-51 [4]): 98.6% | normalised viability (HDQ-P1 [5]): 84.6% | normalised viability (MDA-MB-453 [6]): 99.1%

CN(N=O)C(=O)N[C@@H](C=O)[C@@H](O)[C@H](O)[C@H](O)CO [Streptozocin] (300 nM)
normalised viability (CAL-148 [13]): 107% | normalised viability (DU-4475 [14]): 97.2% | normalised viability (CAL-85-1 [15]): 106% | normalised viability (CAL-51 [16]): 108% | normalised viability (HDQ-P1 [17]): 85.4% | normalised viability (MDA-MB-453 [18]): 102%

CN(N=O)C(=O)N[C@@H](C=O)[C@@H](O)[C@H](O)[C@H](O)CO [Streptozocin] (3000 nM)
normalised viability (CAL-148 [1]): 98.7% | normalised viability (DU-4475 [2]): 95.3% | normalised viability (CAL-85-1 [3]): 97.8% | normalised viability (CAL-51 [4]): 108% | normalised viability (HDQ-P1 [5]): 110% | normalised viability (MDA-MB-453 [6]): 109%

O=C1CCC(N2C(=O)c3ccccc3C2=O)C(=O)N1 (stereo unspecified) [Thalidomide] (300 nM)
normalised viability (CAL-148 [13]): 117% | normalised viability (DU-4475 [14]): 99.6% | normalised viability (CAL-85-1 [15]): 105% | normalised viability (CAL-51 [16]): 88.4% | normalised viability (HDQ-P1 [17]): 80.2% | normalised viability (MDA-MB-453 [18]): 103%

O=C1CCC(N2C(=O)c3ccccc3C2=O)C(=O)N1 (stereo unspecified) [Thalidomide] (3000 nM)
normalised viability (CAL-148 [1]): 113% | normalised viability (DU-4475 [2]): 110% | normalised viability (CAL-85-1 [3]): 91.7% | normalised viability (CAL-51 [4]): 89.8% | normalised viability (HDQ-P1 [5]): 99.7% | normalised viability (MDA-MB-453 [6]): 99.4%

CN[C@@H]1C[C@H]2O[C@@](C)([C@@H]1OC)n1c3ccccc3c3c4c(c5c6ccccc6n2c5c31)C(=O)N[C@H]4O [UCN-01] (300 nM)
normalised viability (CAL-148 [13]): 87% | normalised viability (DU-4475 [14]): 37.6% | normalised viability (CAL-85-1 [15]): 41.8% | normalised viability (CAL-51 [16]): 31.2% | normalised viability (HDQ-P1 [17]): 26.2% | normalised viability (MDA-MB-453 [18]): 38.4%

Clc1ccc(Nc2nnc(Cc3ccncc3)c3ccccc23)cc1 [Vatalanib] (300 nM)
normalised viability (CAL-148 [13]): 88.5% | normalised viability (DU-4475 [14]): 95% | normalised viability (CAL-85-1 [15]): 94.6% | normalised viability (CAL-51 [16]): 98.3% | normalised viability (HDQ-P1 [17]): 78.7% | normalised viability (MDA-MB-453 [18]): 105%

CCC1=C[C@@H]2CN(C1)Cc1c([nH]c3ccccc13)[C@@](C(=O)OC)(c1cc3c(cc1OC)N(C)[C@H]1[C@@](O)(C(=O)OC)[C@H](OC(C)=O)[C@]4(CC)C=CCN5CC[C@]31[C@@H]54)C2 [Vinorelbine] (300 nM)
normalised viability (CAL-148 [13]): 24.5% | normalised viability (DU-4475 [14]): 53.9% | normalised viability (CAL-85-1 [15]): 31.4% | normalised viability (CAL-51 [16]): 35% | normalised viability (HDQ-P1 [17]): 40.5% | normalised viability (MDA-MB-453 [18]): 25.2%

Oc1nc(-c2ccc(C(F)(F)F)cc2)nc2c1CSCC2 [XAV-939] (300 nM)
normalised viability (CAL-148 [13]): 93.3% | normalised viability (DU-4475 [14]): 116% | normalised viability (CAL-85-1 [15]): 89.2% | normalised viability (CAL-51 [16]): 99.3% | normalised viability (HDQ-P1 [17]): 112% | normalised viability (MDA-MB-453 [18]): 93.8%
